Data taken from patent US6914045B2, “Glycopeptide antibiotics” (Wyeth Holdings Corporation, priority 2001, dated 2005).

Columns and labels:
Test in all cases: in vitro antibacterial evaluation, MIC by broth dilution
Assay type in all cases: cell-based
Enterococcus sp. = conditions: broth dilution, 18 hours at 35° C.
Procedure, shortened: (§1)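 Test organisms, which included recent clinical isolates resistant to methicillin, penicillin and/or vancomycin, were inoculated at 5×10^5 CFU/mL into Muller-Hinton II […] containing antibiotic at 64-0.06 μg/mL. Minimum inhibitory concentrations were then read as the lowest level inhibiting growth.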

Staphylococcus sp. = conditions: broth dilution, 18 hours at 35° C.
Procedure, shortened: as §1

Streptococcus sp. = conditions: broth dilution, 18 hours at 35° C.
Procedure, shortened: as §1

Escherichia coli = conditions: 18 hours at 35° C.
[1] = inoculum 5×10^5 CFU/mL, strain GC 2242
[2] = inoculum 5×10^5 CFU/mL, strain GC 2691
[3] = inoculum 5×10^5 CFU/mL, strain GC 3059
[4] = inoculum 5×10^5 CFU/mL, strain ATCC 6301
[5] = inoculum 5×10^5 CFU/mL, strain GC 1894
[6] = inoculum 5×10^5 CFU/mL, strain GC 4563
[7] = inoculum 5×10^5 CFU/mL, strain GC 4564
[8] = inoculum 5×10^5 CFU/mL, strain GC 4565

CC(c1ccccc1)C1NC(=O)CNC(=O)C(CO)NC(=O)C(C(O)C2CNC(=N)N2C2OC(CO)C(O)C(O)C2O)NC(=O)C(C(O)C2CNC(=N)N2)NC(=O)C(Cc2ccc(OC3OC(CO)C(OC4OC(CO)C(O)C(OCc5ccc(OCc6ccccc6)cc5)C4O)C(O)C3O)cc2)NC1=O (stereo not drawn) [Example 231c, Cyclo[glycyl-β-methylphenylalanyl-O-[4-O-[3-O-[4-(phenylmethoxy)benzyl]hexopyranosyl]-hexopyranosyl]tyrosyl-3-(2-iminoimidazolidin-4-yl)seryl-3-(3-hexopyranosyl-2-iminoimidazolidin-4-yl)serylseryl]]
8 µg/mL: MIC Enterococcus faecalis (GC 2691) (Enterococcus sp.) | MIC Enterococcus faecalis (GC 2691) (Enterococcus sp.; [2])
>128 µg/mL: MIC Escherichia coli (ATCC 25922) (Escherichia coli) | MIC Escherichia coli (GC 4559) (Escherichia coli)
2 µg/mL: MIC Coagulase Negative Staphylococcus (GC 4547) (Staphylococcus sp.) | MIC Staphylococcus aureus (GC 1131) (Staphylococcus sp.) | MIC Staphylococcus aureus (GC 3051) (Staphylococcus sp.) | MIC Staphylococcus aureus (GC 3053) (Staphylococcus sp.) | MIC Staphylococcus aureus (GC 4541) (Staphylococcus sp.) | MIC Staphylococcus aureus (GC 4542) (Staphylococcus sp.) | MIC Staphylococcus aureus (GC 4544) (Staphylococcus sp.) | MIC Staphylococcus aureus (GC 4545) (Staphylococcus sp.) | MIC Staphylococcus aureus (GC 1131) (Staphylococcus sp.; strain GC 1131) | MIC Staphylococcus aureus (GC 3051) (Staphylococcus sp.; strain GC 3051) | MIC Staphylococcus aureus (GC 3053) (Staphylococcus sp.; strain GC 3053) | MIC Staphylococcus aureus (GC 4541) (Staphylococcus sp.; strain GC 4541) | MIC Staphylococcus aureus (GC 4542) (Staphylococcus sp.; strain GC 4542) | MIC Staphylococcus aureus (GC 4544) (Staphylococcus sp.; strain GC 4544) | MIC Staphylococcus aureus (GC 4545) (Staphylococcus sp.; strain GC 4545) | MIC Coagulase Negative Staphylococcus (GC 4547) (Staphylococcus sp.; strain GC 4547) | MIC Escherichia coli (GC 4560) (Escherichia coli)
<0.12 µg/mL: MIC Streptococcus agalactiae (GC 4564) (Streptococcus sp.) | MIC Streptococcus pneumoniae (ATCC 6301) (Streptococcus sp.) | MIC Streptococcus pneumoniae (GC 1894) (Streptococcus sp.) | MIC Streptococcus pneumoniae (GC 4565) (Streptococcus sp.) | MIC Streptococcus pyogenes (GC 4563) (Streptococcus sp.) | MIC Streptococcus pneumoniae (ATCC 6301) (Streptococcus sp.; [4]) | MIC Streptococcus pneumoniae (GC 1894) (Streptococcus sp.; [5]) | MIC Streptococcus pyogenes (GC 4563) (Streptococcus sp.; [6]) | MIC Streptococcus agalactiae (GC 4564) (Streptococcus sp.; [7]) | MIC Streptococcus pneumoniae (GC 4565) (Streptococcus sp.; [8])
0.5 µg/mL: MIC Coagulase Negative Staphylococcus (GC 4548) (Staphylococcus sp.) | MIC Coagulase Negative Staphylococcus (GC 4549) (Staphylococcus sp.) | MIC Coagulase Negative Staphylococcus (GC 6257) (Staphylococcus sp.) | MIC Coagulase Negative Staphylococcus (GC 4548) (Staphylococcus sp.; strain GC 4548) | MIC Coagulase Negative Staphylococcus (GC 4549) (Staphylococcus sp.; strain GC 4549) | MIC Coagulase Negative Staphylococcus (GC 6257) (Staphylococcus sp.; strain GC 6257)
1 µg/mL: MIC Coagulase Negative Staphylococcus (GC 4551) (Staphylococcus sp.) | MIC Staphylococcus aureus (ATCC 29213) (Staphylococcus sp.) | MIC Staphylococcus aureus-SMITH (GC 4543) (Staphylococcus sp.) | MIC Staphylococcus haemolyticus (GC 4546) (Staphylococcus sp.) | MIC Staphylococcus aureus (ATCC 29213) (Staphylococcus sp.; strain ATCC 29213) | MIC Staphylococcus aureus-SMITH (GC 4543) (Staphylococcus sp.; strain GC 4543) | MIC Staphylococcus haemolyticus (GC 4546) (Staphylococcus sp.; strain GC 4546) | MIC Coagulase Negative Staphylococcus (GC 4551) (Staphylococcus sp.; strain GC 4551)
4 µg/mL: MIC Enterococcus avium (GC 4558) (Enterococcus sp.) | MIC Enterococcus faecalis (ATCC 29212) (Enterococcus sp.) | MIC Enterococcus faecalis (GC 2242) (Enterococcus sp.) | MIC Enterococcus faecalis (GC 3059) (Enterococcus sp.) | MIC Enterococcus faecalis (GC 4552) (Enterococcus sp.) | MIC Enterococcus faecalis (GC 4553) (Enterococcus sp.) | MIC Enterococcus faecalis (GC 4554) (Enterococcus sp.) | MIC Enterococcus faecalis (GC 6189) (Enterococcus sp.) | MIC Enterococcus faecium (GC 2243) (Enterococcus sp.) | MIC Enterococcus faecium (GC 4556) (Enterococcus sp.) | MIC Enterococcus faecium (GC 4557) (Enterococcus sp.) | MIC Enterococcus faecalis (ATCC 29212) (Enterococcus sp.; inoculum 5×10^5 CFU/mL, strain ATCC 29212) | MIC Enterococcus faecalis (GC 2242) (Enterococcus sp.; [1]) | MIC Enterococcus faecium (GC 2243) (Enterococcus sp.; inoculum 5×10^5 CFU/mL, strain GC 2243) | MIC Enterococcus faecalis (GC 3059) (Enterococcus sp.; [3]) | MIC Enterococcus faecalis (GC 4552) (Enterococcus sp.; inoculum 5×10^5 CFU/mL, strain GC 4552) | MIC Enterococcus faecalis (GC 4553) (Enterococcus sp.; inoculum 5×10^5 CFU/mL, strain GC 4553) | MIC Enterococcus faecalis (GC 4554) (Enterococcus sp.; inoculum 5×10^5 CFU/mL, strain GC 4554) | MIC Enterococcus faecium (GC 4556) (Enterococcus sp.; inoculum 5×10^5 CFU/mL, strain GC 4556) | MIC Enterococcus faecium (GC 4557) (Enterococcus sp.; inoculum 5×10^5 CFU/mL, strain GC 4557) | MIC Enterococcus avium (GC 4558) (Enterococcus sp.; inoculum 5×10^5 CFU/mL, strain GC 4558) | MIC Enterococcus faecalis (GC 6189) (Enterococcus sp.; inoculum 5×10^5 CFU/mL, strain GC 6189)

CC(c1ccccc1)C1NC(=O)CNC(=O)C(CO)NC(=O)C(CC2CNC(=N)N2C2OC(CO)C(O)C(O)C2O)NC(=O)C(CC2CNC(=N)N2)NC(=O)C(Cc2ccc(OC3OC(CO)C(OC4OC(CO)C(OCc5ccc(OCc6ccccc6)cc5)C(O)C4O)C(O)C3O)cc2)NC1=O (centres unmarked) [Example 246a]
8 µg/mL: MIC Enterococcus faecalis (GC 2691) (Enterococcus sp.) | MIC Enterococcus faecalis (GC 2691) (Enterococcus sp.; [2])
4 µg/mL: MIC Enterococcus faecalis (ATCC 29212) (Enterococcus sp.) | MIC Enterococcus faecalis (GC 2242) (Enterococcus sp.) | MIC Enterococcus faecalis (GC 3059) (Enterococcus sp.) | MIC Enterococcus faecalis (GC 4552) (Enterococcus sp.) | MIC Enterococcus faecalis (GC 4554) (Enterococcus sp.) | MIC Enterococcus faecalis (GC 6189) (Enterococcus sp.) | MIC Enterococcus faecium (GC 2243) (Enterococcus sp.) | MIC Enterococcus faecium (GC 4556) (Enterococcus sp.) | MIC Enterococcus faecalis (ATCC 29212) (Enterococcus sp.; strain ATCC 29212) | MIC Enterococcus faecium (GC 2243) (Enterococcus sp.; strain GC 2243) | MIC Enterococcus faecalis (GC 4552) (Enterococcus sp.; strain GC 4552) | MIC Enterococcus faecalis (GC 4554) (Enterococcus sp.; strain GC 4554) | MIC Enterococcus faecium (GC 4556) (Enterococcus sp.; strain GC 4556) | MIC Enterococcus faecalis (GC 6189) (Enterococcus sp.; strain GC 6189) | MIC Enterococcus faecalis (GC 2242) (Enterococcus sp.; [1]) | MIC Enterococcus faecalis (GC 3059) (Enterococcus sp.; [3]) | MIC Staphylococcus aureus (GC 1131) (Staphylococcus sp.) | MIC Staphylococcus aureus (GC 1131) (Staphylococcus sp.; strain GC 1131)
2 µg/mL: MIC Enterococcus avium (GC 4558) (Enterococcus sp.) | MIC Enterococcus faecalis (GC 4553) (Enterococcus sp.) | MIC Enterococcus faecium (GC 4557) (Enterococcus sp.) | MIC Enterococcus faecalis (GC 4553) (Enterococcus sp.; strain GC 4553) | MIC Enterococcus faecium (GC 4557) (Enterococcus sp.; strain GC 4557) | MIC Enterococcus avium (GC 4558) (Enterococcus sp.; strain GC 4558) | MIC Coagulase Negative Staphylococcus (GC 4551) (Staphylococcus sp.) | MIC Coagulase Negative Staphylococcus (GC 6257) (Staphylococcus sp.) | MIC Staphylococcus aureus (ATCC 29213) (Staphylococcus sp.) | MIC Staphylococcus aureus (GC 3053) (Staphylococcus sp.) | MIC Staphylococcus aureus (GC 4544) (Staphylococcus sp.) | MIC Staphylococcus aureus (GC 4545) (Staphylococcus sp.) | MIC Staphylococcus aureus (ATCC 29213) (Staphylococcus sp.; strain ATCC 29213) | MIC Staphylococcus aureus (GC 3053) (Staphylococcus sp.; strain GC 3053) | MIC Staphylococcus aureus (GC 4544) (Staphylococcus sp.; strain GC 4544) | MIC Staphylococcus aureus (GC 4545) (Staphylococcus sp.; strain GC 4545) | MIC Coagulase Negative Staphylococcus (GC 4551) (Staphylococcus sp.; strain GC 4551) | MIC Coagulase Negative Staphylococcus (GC 6257) (Staphylococcus sp.; strain GC 6257) | MIC Escherichia coli (GC 4560) (Escherichia coli)
<0.12 µg/mL: MIC Streptococcus pneumoniae (GC 1894) (Streptococcus sp.) | MIC Streptococcus pneumoniae (GC 1894) (Streptococcus sp.; [5])
0.25 µg/mL: MIC Streptococcus pneumoniae (ATCC 6301) (Streptococcus sp.) | MIC Streptococcus pneumoniae (GC 4565) (Streptococcus sp.) | MIC Streptococcus pneumoniae (ATCC 6301) (Streptococcus sp.; [4]) | MIC Streptococcus pneumoniae (GC 4565) (Streptococcus sp.; [8])
1 µg/mL: MIC Coagulase Negative Staphylococcus (GC 4547) (Staphylococcus sp.) | MIC Coagulase Negative Staphylococcus (GC 4548) (Staphylococcus sp.) | MIC Coagulase Negative Staphylococcus (GC 4549) (Staphylococcus sp.) | MIC Staphylococcus aureus (GC 3051) (Staphylococcus sp.) | MIC Staphylococcus aureus (GC 4541) (Staphylococcus sp.) | MIC Staphylococcus aureus (GC 4542) (Staphylococcus sp.) | MIC Staphylococcus aureus-SMITH (GC 4543) (Staphylococcus sp.) | MIC Staphylococcus haemolyticus (GC 4546) (Staphylococcus sp.) | MIC Staphylococcus aureus (GC 3051) (Staphylococcus sp.; strain GC 3051) | MIC Staphylococcus aureus (GC 4541) (Staphylococcus sp.; strain GC 4541) | MIC Staphylococcus aureus (GC 4542) (Staphylococcus sp.; strain GC 4542) | MIC Staphylococcus aureus-SMITH (GC 4543) (Staphylococcus sp.; strain GC 4543) | MIC Staphylococcus haemolyticus (GC 4546) (Staphylococcus sp.; strain GC 4546) | MIC Coagulase Negative Staphylococcus (GC 4547) (Staphylococcus sp.; strain GC 4547) | MIC Coagulase Negative Staphylococcus (GC 4548) (Staphylococcus sp.; strain GC 4548) | MIC Coagulase Negative Staphylococcus (GC 4549) (Staphylococcus sp.; strain GC 4549)
0.5 µg/mL: MIC Streptococcus agalactiae (GC 4564) (Streptococcus sp.) | MIC Streptococcus pyogenes (GC 4563) (Streptococcus sp.) | MIC Streptococcus pyogenes (GC 4563) (Streptococcus sp.; [6]) | MIC Streptococcus agalactiae (GC 4564) (Streptococcus sp.; [7])
16 µg/mL: MIC Escherichia coli (ATCC 25922) (Escherichia coli) | MIC Escherichia coli (GC 4559) (Escherichia coli)
